Test results from US7943181B2, “Natural immunostimulant compositions, methods for obtaining the same and pharmaceutical formulations thereof” (Himalaya Global Holdings Ltd., priority 2004, dated 2011).
Where two headings read alike, the source gives them in different places.

Tests used:
[1] = system: ACD sensitized L929 cells; assay: Assay for immunostimulatory effects: proinflammatory cytokine induced cell death after transfer of RAW 264.7 supernatant; assay type: cell-based, mouse; settings: Table 4, extract 200 μg/ml, LPS 1 μg/ml, control 0
Experimental: The extracts […] to […] and SR-1 to SR-11 were subjected to biological screening in Mouse macrophage (RAW 264.7) cell and fibroblast (L929) cells for in vitro immunomodulatory activity. Following the treatment with sub toxic levels of the extract the percent death in the ACD sensitised cells was taken as end point.
The stock solution of the plant extract was prepared in specified solvent at a concentration of 50 mg/ml. The working concentration of 10 mg/ml solution was prepared in incomplete Dulbecco's Modified Eagle's Medium (DMEM) and filter sterilized for further use in the assays.
Mouse macrophage (RAW 264.7) cells and fibroblast (L929) cells were used in the in vitro assays. These were maintained in DMEM supplemented with 10% fetal calf serum (FCS) at 37° C. in a humidified atmosphere containing 5% CO2/95% air. The cells were sub cultured upon confluence.
Mouse macrophage (RAW 264.7) cells were plated at a cell density of 1×10^5 cells/well in a 96 well micro titer plate. After 24 h of incubation they were treated with filtered extract (200 μg/ml), Lipopolysaccharide (1 μg/ml) or media alone and incubated for a further period of 18-24 h. The supernatants as such or diluted ( 1/10th or 1/20th) were transferred to pre-incubated (24 h) L929 cells ([…]). […]

RAW-264.7 Cells = assay: Nitric oxide (NO) estimation, nitrite released from mouse macrophage cells; assay type: cell-based; settings: Table 5, 48 h, LPS 1 μg/ml, control 800 ± 50
Experimental: Macrophages are part of immune system (innate immunity) which phagocytose the intruder organism and kill them by release of toxic Nitric Oxide (NO). In this experiment, the ability of the plant extract to stimulate the macrophages for NO production was measured as nitrite released from mouse macrophage cells. Mouse macrophage cells were plated in 96-well culture plates (1×10^5 cells/well) and incubated for 24 h at 37° C. in a humidified atmosphere containing 5% CO2/95% air. The spent media from each well was aspirated and replenished with fresh media and further incubated for 48 h with desired concentration of extract in presence or in absence of Lipopolysaccharide (LPS 1 μg/ml). NO production in the supernatant was measured by micro plate assay. Cell supernatant was mixed with an equal volume of the Griess reagent (1% sulfanilaminde and 0.1% N-[napthyl]ethylenediamine dihydrochloride in 2.5% H3PO4) at room temperature for 10 min. The absorbance at 540 nm was determined in a microtiter plate reader (Anthos HT II). NO estimation was carried out using standard curve plotted against known quantity of […]. Results presented are in μM concentration obtained from mean OD of triplicate wells of each group.

[2] = system: IL-6 production in RAW-264.7 Cells; assay: Estimation of IL-6 production by ELISA in macrophage supernatant; assay type: cell-based, mouse; settings: Table 7; RAW 264.7 supernatant; control 542 ± 4
Experimental: (§1) This experiment was carried out to know whether the plant extract has stimulatory effects on the production of proinflammatory cytokines. Mouse macrophage cells, RAW 264.7 were cultured for 48 hours in the presence or in the absence of filtered plant extract. LPS was used as stimulant for proinflammatory cytokines TNF-∝ and IL-6. Supernatant of these samples were harvested immediately for estimations of TNF-∝ and IL-6 by an ELISA as per the manufacturer's protocol and recorded the results as concentrations in pg/ml.

[3] = system: TNF-α production in RAW-264.7 Cells; assay: Estimation of TNF-α production by ELISA in macrophage supernatant; assay type: cell-based, mouse; settings: Table 6; RAW 264.7 supernatant; control 1662.00 ± 3.50
Experimental: as §1

[4] = target: snake venom Phosphodiesterase type I (Crotalus adamanteus, UniProt J3SEZ3); settings: cited from earlier work
snake venom Phosphodiesterase type I, sequence (J3SEZ3 24-851 limits assumed): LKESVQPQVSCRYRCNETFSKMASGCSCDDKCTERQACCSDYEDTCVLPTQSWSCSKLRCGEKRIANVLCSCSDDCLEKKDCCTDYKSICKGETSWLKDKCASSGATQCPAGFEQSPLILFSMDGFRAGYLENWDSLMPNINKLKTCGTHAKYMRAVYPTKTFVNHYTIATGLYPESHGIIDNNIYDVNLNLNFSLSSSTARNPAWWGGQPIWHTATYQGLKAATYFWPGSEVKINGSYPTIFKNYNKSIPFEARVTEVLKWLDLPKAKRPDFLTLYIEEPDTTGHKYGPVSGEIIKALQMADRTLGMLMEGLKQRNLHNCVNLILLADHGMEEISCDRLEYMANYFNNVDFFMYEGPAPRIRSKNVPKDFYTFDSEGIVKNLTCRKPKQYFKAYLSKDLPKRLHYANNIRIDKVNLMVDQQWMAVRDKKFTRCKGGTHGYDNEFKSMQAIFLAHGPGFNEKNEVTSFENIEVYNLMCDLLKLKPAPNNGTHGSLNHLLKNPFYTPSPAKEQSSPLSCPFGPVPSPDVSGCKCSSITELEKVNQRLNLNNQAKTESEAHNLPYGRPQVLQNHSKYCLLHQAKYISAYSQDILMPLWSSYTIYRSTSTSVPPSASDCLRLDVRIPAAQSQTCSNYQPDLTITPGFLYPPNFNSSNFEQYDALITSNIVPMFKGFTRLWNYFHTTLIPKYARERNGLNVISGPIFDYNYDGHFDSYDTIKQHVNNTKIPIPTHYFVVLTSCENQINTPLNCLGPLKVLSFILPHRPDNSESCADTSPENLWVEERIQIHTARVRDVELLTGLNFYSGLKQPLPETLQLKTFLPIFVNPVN

[5] = system: SRBC specific immunoglobulin; assay: Humoral response: haemagglutination antibody titre against SRBC in normal and immunocompromised rats; assay type: in vivo; settings: Wistar rats, IMS-6 200 mg/Kg orally 14 days, SRBC ip day 10, Cyclophosphamide 400 mg/Kg ip day 12, serum day 14; control 3.278 ± 0.181
[6] = Indian J. Chem, 1989; cited from earlier work
[7] = J. Chem. Soc., Pakistan, 1982; cited from earlier work

## Lipopolysaccharide [LPS]
[1]
  Proinflammatory Cytokine induced Cell Death (%): 79.0%
RAW-264.7 Cells
  NO Levels: 2862.50 ± 87.50 µM
[2]
  IL-6 Conc.: 11187 ± 214 pg/mL
[3]
  TNF ∝ Levels: 3432.00 ± 140.50 pg/mL
  TNF ∝ Levels (pg/ml): 3432.00 ± 140.50^• pg/ml

## benzoylsalireposide
[4]
  inhibitory activity against snake venom Phosphodiesterase type I: inhibitory activity

## O=P1(N(CCCl)CCCl)NCCCO1 (stereo not shown) [Cyclophosphamide]
[5]
  Antibody titre: 0.444 ± 0.141

## O=C(OCc1cc(O)ccc1O[C@@H]1O[C@H](CO)[C@@H](O)[C@H](O)[C@H]1O)c1ccccc1 [salireposide]
[4]; Ahmad et al. Phytochemistry, 2003
  inhibitory activity against snake venom Phosphodiesterase type I: inhibitory activity

## OC[C@H]1O[C@@H](Oc2cc(O)c3c(c2)O[C@H](c2ccc(O)cc2)[C@H](O)C3)[C@H](O)[C@@H](O)[C@@H]1O [Symposide]
[6]
  antifibrinolytic activity: showed antifibrinolytic activity

## C[C@H]1N[C@@H](CCCCCCCCCCC2=C[C@@H](CCCCCCCCCC[C@H]3CC[C@@H](O)[C@@H](C)N3)[C@@H]3CCCN3C2)CC[C@H]1O [Juliprosopine]
[7]
  antibacterial activity: exhibiting antibacterial activity
